Among the data in US8987195B2 (priority 2012, dated 2015) are IC50 and EC50 values, retold here.

The target in assay [1] is HCV NS3/4A protease genotype 1b (Hepatitis C virus genotype 1b, UniProt P26663). As to the kind of experiment: HCV NS3/4A protease time-resolved fluorescence (TRF) assay, Ki against genotype 1b. In kind it is biochemical. Particulars: IC50 [gt-1b] (nM), NS3/4A genotype 1b, enzyme 0.2 nM. The essentials:
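Enzyme 0.2 nM 1b / 0.4 nM A156T / 0.025 nM 3a; 30 min preinc. w/ cpd; 25 nM TRF peptide; 2.5 h RT; ex 340/em 615 time-delayed; 4-param IC50 → Ki = IC50/(1+[S]/KM).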

A further assay deals with HCV genotype 1b replicon. Kind of assay: HCV replicon assay, genotype 1b replicon EC50. The assay is classed as cell-based, Hepatitis C virus. Particulars: genotype 1b replicon, read-out: EC50 [gt-1b]. The essentials: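 Potency comes from a four-parameter fit of signal as percent of DMSO control. Replicon-bearing cells were treated 24-48 hours with a compound dilution series in absence of G418, and replicon RNA was quantified normalized to cyclophilin A RNA, or luciferase read.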

Where two headings read alike, the source gives them in different places.

On to `Cc1nc2cc(F)c(F)cc2c2c1O[C@]1(CC2)C[C@H]2C(=O)N[C@]3(C(=O)NS(=O)(=O)C4(C)CC4)C[C@H]3/C=C\CCCCC[C@H](NC(=O)OC3CCCC3)C(=O)N2C1` [Example 193, cyclopentyl [(2R,6S,12Z,13aS,14aR,16aS)-8′,9′-difluoro-5′-methyl-14a-{[(1-methylcyclopropyl)sulfonyl]carbamoyl}-5,16-dioxo-1,1′,2′,5,6,7,8,9,10,11,13a,14,14a,15,16,16a-hexadecahydrospiro[cyclopropa[e]pyrrolo[1,2-a][1,4]diazacyclopentadecine-2,3′-pyrano[2,3-c]quinolin]-6-yl]carbamate], for which the IC50 in assay [1] (K+ salt) was 0.007 nM. In the assay on HCV genotype 1b replicon (Hepatitis C virus, K+ salt), the EC50 was found to be 31.1 nM.

In turn, `Cc1nc2ccccc2c2c1O[C@]1(CC2)C[C@H]2C(=O)N[C@]3(C(=O)NS(=O)(=O)C4(C)CC4)C[C@H]3/C=C\CCCCC[C@H](NC(=O)OC3CCC(F)(F)CC3)C(=O)N2C1` [Example 196, 4,4-difluorocyclohexyl [(2R,6S,12Z,13aS,14aR,16aS)-5′-methyl-14a-{[(1-methylcyclopropyl)sulfonyl]carbamoyl}-5,16-dioxo-1,1′,2′,5,6,7,8,9,10,11,13a,14,14a,15,16,16a-hexadecahydrospiro[cyclopropa[e]pyrrolo[1,2-a][1,4]diazacyclopentadecine-2,3′-pyrano[2,3-c]quinolin]-6-yl]carbamate] yielded an IC50 in assay [1] of 0.003 nM. For the same molecule, in the assay with HCV genotype 1b replicon (Hepatitis C virus), the EC50 was determined as 5.53 nM.

Take `Cc1nc2ccccc2c2c1O[C@]1(CC2)C[C@H]2C(=O)N[C@]3(C(=O)NS(=O)(=O)C4(C)CC4)C[C@H]3/C=C\CCCCC[C@H](NC(=O)OC(C)C(F)(F)F)C(=O)N2C1` (stereo partly drawn) [Example 197, 1,1,1-trifluoropropan-2-yl [(2R,6S,12Z,13aS,14aR,16aS)-5′-methyl-14a-{[(1-methylcyclopropyl)sulfonyl]carbamoyl}-5,16-dioxo-1,1′,2′,5,6,7,8,9,10,11,13a,14,14a,15,16,16a-hexadecahydrospiro[cyclopropa[e]pyrrolo[1,2-a][1,4]diazacyclopentadecine-2,3′-pyrano[2,3-c]quinolin]-6-yl]carbamate]: the concentration for half-maximal inhibition (IC50) in assay [1] is 0.004 nM. Moreover, the EC50 in the assay with HCV genotype 1b replicon was determined as 9.87 nM.

`COc1ccc2nc(C)c3c(c2c1)CC[C@]1(C[C@H]2C(=O)N[C@]4(C(=O)NS(=O)(=O)C5(C)CC5)C[C@H]4/C=C\CCCCC[C@H](NC(=O)OC4CCCC4C)C(=O)N2C1)O3` (stereo partly drawn) [Example 200, 2-methylcyclopentyl [(2R,6S,12Z,13aS,14aR,16aS)-9′-methoxy-5′-methyl-14a-{[(1-methylcyclopropyl)sulfonyl]carbamoyl}-5,16-dioxo-1,1′,2′,5,6,7,8,9,10,11,13a,14,14a,15,16,16a-hexadecahydrospiro[cyclopropa[e]pyrrolo[1,2-a][1,4]diazacyclopentadecine-2,3′-pyrano[2,3-c]quinolin]-6-yl]carbamate]: the IC50 in assay [1] (K+ salt) was 0.005 nM. The EC50 with HCV genotype 1b replicon (Hepatitis C virus, K+ salt) stood at 0.369 nM.

For the molecule `Cc1nc2cc(F)c(F)cc2c2c1O[C@]1(CC2)C[C@H]2C(=O)N[C@]3(C(=O)NS(=O)(=O)C4(C)CC4)C[C@H]3/C=C\CCCCC[C@H](NC(=O)OCC(C)C)C(=O)N2C1` [Example 201, 2-methylpropyl [(2R,6S,12Z,13aS,14aR,16aS)-8′,9′-difluoro-5′-methyl-14a-{[(1-methylcyclopropyl)sulfonyl]carbamoyl}-5,16-dioxo-1,1′,2′,5,6,7,8,9,10,11,13a,14,14a,15,16,16a-hexadecahydrospiro[cyclopropa[e]pyrrolo[1,2-a][1,4]diazacyclopentadecine-2,3′-pyrano[2,3-c]quinolin]-6-yl]carbamate], the IC50 in assay [1] (K+ salt) was 0.007 nM. The 50% effective concentration (EC50) with HCV genotype 1b replicon (Hepatitis C virus, K+ salt) is 0.91 nM.

In the case of `Cc1nc2cc(F)c(F)cc2c2c1O[C@]1(CC2)C[C@H]2C(=O)N[C@]3(C(=O)NS(=O)(=O)C4(C)CC4)C[C@H]3/C=C\CCCCC[C@H](NC(=O)OCC(C)(C)C)C(=O)N2C1` [Example 202, 2,2-dimethylpropyl [(2R,6S,12Z,13aS,14aR,16aS)-8′,9′-difluoro-5′-methyl-14a-{[(1-methylcyclopropyl)sulfonyl]carbamoyl}-5,16-dioxo-1,1′,2′,5,6,7,8,9,10,11,13a,14,14a,15,16,16a-hexadecahydrospiro[cyclopropa[e]pyrrolo[1,2-a][1,4]diazacyclopentadecine-2,3′-pyrano[2,3-c]quinolin]-6-yl]carbamate], the IC50 in assay [1] (K+ salt) was 0.009 nM. The half-maximal effective concentration (EC50) in the assay with HCV genotype 1b replicon (Hepatitis C virus, K+ salt) was determined as 1.43 nM.

On to `COc1ccc2nc(C)c3c(c2c1)CC[C@]1(C[C@H]2C(=O)N[C@]4(C(=O)NS(=O)(=O)C5(C)CC5)C[C@H]4/C=C\CCCCC[C@H](NC(=O)OCC(C)(C)C)C(=O)N2C1)O3` [Example 205, 2,2-dimethylpropyl [(2R,6S,12Z,13aS,14aR,16aS)-9′-methoxy-5′-methyl-14a-{[(1-methylcyclopropyl)sulfonyl]carbamoyl}-5,16-dioxo-1,1′,2′,5,6,7,8,9,10,11,13a,14,14a,15,16,16a-hexadecahydrospiro[cyclopropa[e]pyrrolo[1,2-a][1,4]diazacyclopentadecine-2,3′-pyrano[2,3-c]quinolin]-6-yl]carbamate], for which the concentration for half-maximal inhibition (IC50) in assay [1] (K+ salt) turned out to be 0.005 nM. For the same molecule, in the assay on HCV genotype 1b replicon (Hepatitis C virus, K+ salt), the half-maximal effective concentration (EC50) was 0.647 nM.

For `COc1ccc2nc(C)c3c(c2c1)CC[C@]1(C[C@H]2C(=O)N[C@]4(C(=O)NS(=O)(=O)C5(C)CC5)C[C@H]4/C=C\CCCCC[C@H](NC(=O)OC4CCCCC4)C(=O)N2C1)O3` [Example 206, cyclohexyl [(2R,6S,12Z,13aS,14aR,16aS)-9′-methoxy-5′-methyl-14a-{[(1-methylcyclopropyl)sulfonyl]carbamoyl}-5,16-dioxo-1,1′,2′,5,6,7,8,9,10,11,13a,14,14a,15,16,16a-hexadecahydrospiro[cyclopropa[e]pyrrolo[1,2-a][1,4]diazacyclopentadecine-2,3′-pyrano[2,3-c]quinolin]-6-yl]carbamate], the IC50 in assay [1] (K+ salt) was 0.005 nM. Further, the 50% effective concentration (EC50) with HCV genotype 1b replicon (Hepatitis C virus, K+ salt) amounted to 0.808 nM.

For the molecule `COCC(C)(C)OC(=O)N[C@H]1CCCCC/C=C\[C@@H]2C[C@@]2(C(=O)NS(=O)(=O)C2(C)CC2)NC(=O)[C@@H]2C[C@]3(CCc4c(c(C)nc5ccc(OC(F)(F)F)cc45)O3)CN2C1=O` [Example 207, 1-methoxy-2-methylpropan-2-yl [(2R,6S,12Z,13aS,14aR,16aS)-5′-methyl-14a-{[(1-methylcyclopropyl)sulfonyl]carbamoyl}-5,16-dioxo-9′-(trifluoromethoxy)-1,1′,2′,5,6,7,8,9,10,11,13a,14,14a,15,16,16a-hexadecahydrospiro[cyclopropa[e]pyrrolo[1,2-a][1,4]diazacyclopentadecine-2,3′-pyrano[2,3-c]quinolin]-6-yl]carbamate], the midpoint of inhibition in assay [1], the IC50, lay at 0.007 nM. In addition, the EC50 in the assay on HCV genotype 1b replicon (Hepatitis C virus) was found to be 1.08 nM.

`COCCC(C)(C)OC(=O)N[C@H]1CCCCC/C=C\[C@@H]2C[C@@]2(C(=O)NS(=O)(=O)C2(C)CC2)NC(=O)[C@@H]2C[C@]3(CCc4c(c(C)nc5ccc(OC(F)(F)F)cc45)O3)CN2C1=O` [Example 208, 4-methoxy-2-methylbutan-2-yl [(2R,6S,12Z,13aS,14aR,16aS)-5′-methyl-14a-{[(1-methylcyclopropyl)sulfonyl]carbamoyl}-5,16-dioxo-9′-(trifluoromethoxy)-1,1′,2′,5,6,7,8,9,10,11,13a,14,14a,15,16,16a-hexadecahydrospiro[cyclopropa[e]pyrrolo[1,2-a][1,4]diazacyclopentadecine-2,3′-pyrano[2,3-c]quinolin]-6-yl]carbamate] had an IC50 in assay [1] of 0.009 nM. The EC50 in the assay on HCV genotype 1b replicon (Hepatitis C virus) amounted to 2.05 nM.

Consider `COc1ccc2nc(C(C)C)c3c(c2c1)C(F)(F)C[C@]1(C[C@H]2C(=O)N[C@]4(C(=O)NS(=O)(=O)C5(C)CC5)C[C@H]4/C=C\CCCCC[C@H](NC(=O)OC4CCCC4)C(=O)N2C1)O3` [Example 210, cyclopentyl [(2S,6S,12Z,13aS,14aR,16aS)-1′,1′-difluoro-9′-methoxy-14a-{[(1-methylcyclopropyl)sulfonyl]carbamoyl}-5,16-dioxo-5′-(propan-2-yl)-1,1′,2′,5,6,7,8,9,10,11,13a,14,14a,15,16,16a-hexadecahydrospiro[cyclopropa[e]pyrrolo[1,2-a][1,4]diazacyclopentadecine-2,3′-pyrano[2,3-c]quinolin]-6-yl]carbamate], for which half-maximal inhibition in assay [1] (IC50) required 0.008 nM. In addition, the concentration giving a half-maximal response (EC50) in the assay with HCV genotype 1b replicon (Hepatitis C virus) turned out to be 2.38 nM.

In turn, `COc1ccc2nc(C(C)C)c3c(c2c1)C(F)(F)C[C@]1(C[C@H]2C(=O)N[C@]4(C(=O)NS(=O)(=O)C5(C)CC5)C[C@H]4/C=C\CCCCC[C@H](NC(=O)OCC(C)C)C(=O)N2C1)O3` [Example 211, 2-methylpropyl [(2S,6S,12Z,13aS,14aR,16aS)-1′,1′-difluoro-9′-methoxy-14a-{[(1-methylcyclopropyl)sulfonyl]carbamoyl}-5,16-dioxo-5′-(propan-2-yl)-1,1′,2′,5,6,7,8,9,10,11,13a,14,14a,15,16,16a-hexadecahydrospiro[cyclopropa[e]pyrrolo[1,2-a][1,4]diazacyclopentadecine-2,3′-pyrano[2,3-c]quinolin]-6-yl]carbamate] came in with a half-inhibitory concentration (IC50) in assay [1] of 0.006 nM. Further, the EC50 with HCV genotype 1b replicon (Hepatitis C virus) stood at 3.54 nM.

The term IC50 denotes the concentration that gives 50% inhibition. As a reminder, the EC50 is the concentration at which the effect is half-maximal.
